According to the supplement of paper PMC7021759:
± gives the standard deviation of the averaged measurements.

System: SK-N-MM (SKNMM-MYCN, doxycycline-inducible MYCN)
Assay: area under dose-response curve (CellTiter-Glo viability normalised to plate controls) (AUC (arbitrary units)); higher = more loss of viability; extreme values may be limits of the assay
Method in brief: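 In 96-well plates, SK-N-MM cells with doxycycline-inducible MYCN (1250 cells/100 μL) were given medium with or without doxycycline about 24 h after plating. Compound dilution series of 10 points at 1:3 were added two days later and again on day 4, and CellTiter-Glo luminescence was recorded 3 or 8 days after drugging. The area under the dose-response curve was derived from log2 signals normalised to the positive and negative controls on each plate.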

[1] = MYCN induction (doxycycline): +doxycycline (MYCN induced), time after drugging: 3 days
[2] = MYCN induction (doxycycline): +doxycycline (MYCN induced), time after drugging: 8 days
[3] = MYCN induction (doxycycline): no doxycycline (MYCN not induced), time after drugging: 8 days
[4] = MYCN induction (doxycycline): no doxycycline (MYCN not induced), time after drugging: 3 days

Compound | area under dose-response curve [1] | area under dose-response curve [2] | area under dose-response curve [3] | area under dose-response curve [4]
O=C(NC1CCNCC1)c1n[nH]cc1NC(=O)c1c(Cl)cccc1Cl [AT-7519] | 48.9 | 113 | 65.7 | 
COc1ccc2c(c1OC)C(=O)O[C@@H]2[C@H]1c2c(cc3c(c2OC)OCO3)CCN1C [NOSCAPINE] | 0.556 | 19.8 |  | 0
CCOc1cc2ncc(C#N)c(Nc3ccc(OCc4ccccn4)c(Cl)c3)c2cc1NC(=O)/C=C/CN(C)C [NERATINIB] | 106 | 154 | 151 | 98.3
CCC(C)n1ncn(-c2ccc(N3CCN(c4ccc(OCC5COC(Cn6cncn6)(c6ccc(Cl)cc6Cl)O5)cc4)CC3)cc2)c1=O (stereo unspecified) [ITRACONAZOLE] | 13.1 | 26.1 | 26.1 | 11.4
O=P1(N(CCCl)CCCl)NCCCO1 (stereo unspecified) [CYCLOPHOSPHAMIDE] | 0 | 0 |  | 0
CCN(CC)CCCC(C)Nc1c2ccc(Cl)cc2nc2ccc(OC)cc12 (stereo unspecified) [QUINACRINE] | 2.07 | 146 | 149 | 0
Nc1ccn([C@@H]2O[C@H](CO)[C@@H](O)[C@@H]2O)c(=O)n1 [CYTARABINE] | 40.4 | 221 | 132 | 33.7
OCCN1CCN(CCCN2c3ccccc3Sc3ccc(C(F)(F)F)cc32)CC1 [FLUFENAZINE] | 0 | 0 | 0 | 0
Cn1ncnc1[C@H]1c2n[nH]c(=O)c3cc(F)cc(c23)N[C@@H]1c1ccc(F)cc1 [TALAZOPARIB] | 48.2 ± 12 | 183 ± 40 | 78.2 ± 25 | 29.3 ± 20
COc1cc(Nc2c(C#N)cnc3cc(OCCCN4CCN(C)CC4)c(OC)cc23)c(Cl)cc1Cl [BOSUTINIB] | 0.583 | 0.0371 | 0.202 | 0.885
CC12CC3CC(C)(C1)CC(N)(C3)C2 [MEMANTINE] | 0 | 0 | 0 | 0
COc1cc([C@@H]2c3cc4c(cc3[C@@H](O[C@@H]3O[C@@H]5CO[C@@H](C)O[C@H]5[C@H](O)[C@H]3O)[C@H]3COC(=O)[C@H]23)OCO4)cc(OC)c1O [ETOPOSIDE] | 42.1 | 114 | 43.1 | 18.8
CO[C@H]1C[C@@H]2CC[C@@H](C)[C@@](O)(O2)C(=O)C(=O)N2CCCC[C@H]2C(=O)O[C@H]([C@H](C)C[C@@H]2CC[C@@H](OCCO)[C@H](OC)C2)CC(=O)[C@H](C)/C=C(\C)[C@@H](O)[C@@H](OC)C(=O)[C@H](C)C[C@H](C)/C=C/C=C/C=C/1C [EVEROLIMUS] | 19.6 | 0 | 21.4 | 37.3
CO[C@@H]1[C@H](N(C)C(=O)c2ccccc2)C[C@H]2O[C@]1(C)n1c3ccccc3c3c4c(c5c6ccccc6n2c5c31)C(=O)NC4 [MIDOSTAURIN] | 59.7 | 122 | 127 | 65.6
CC1(C)CCC(CN2CCN(c3ccc(C(=O)NS(=O)(=O)c4ccc(NCC5CCOCC5)c([N+](=O)[O-])c4)c(Oc4cnc5[nH]ccc5c4)c3)CC2)=C(c2ccc(Cl)cc2)C1 [VENETOCLAX] |  | 2.61 ± 3.7 | 0 | 0
Cc1nc(Nc2ncc(C(=O)Nc3c(C)cccc3Cl)s2)cc(N2CCN(CCO)CC2)n1 [DASATINIB] | 39.9 | 121 | 51.4 | 40
COc1cc2/c(=N/c3ccc(Br)cc3F)nc[nH]c2cc1OCC1CCN(C)CC1 [VANDETANIB] | 3.18 | 0 | 125 | 2.99
O=C(/C=C\n1cnc(-c2cc(C(F)(F)F)cc(C(F)(F)F)c2)n1)NNc1cnccn1 [SELINEXOR] | 98.9 | 189 | 128 | 43.6
Cc1cc(Nc2ncc(Cl)c(Nc3ccccc3S(=O)(=O)C(C)C)n2)c(OC(C)C)cc1C1CCNCC1 [CERITINIB] | 175 | 168 | 170 | 172
CCc1c2c(nc3ccc(O)cc13)-c1cc3c(c(=O)n1C2)COC(=O)[C@]3(O)CC [SN-38] | 152 ± 8.4 | 295 ± 33 | 181 ± 37 | 67.4 ± 16
CCC1(c2ccc(N)cc2)CCC(=O)NC1=O (stereo unspecified) [AMINOGLUTETHIMIDE] | 0 | 0 |  | 0
C[C@H]1[C@H](OC(=O)CCC(=O)O)O[C@@H]2O[C@@]3(C)CC[C@H]4[C@H](C)CC[C@@H]1[C@@]24OO3 [ARTESUNATE] | 46.2 | 60 | 25.9 | 25.7
CN(C)C/C=C/C(=O)Nc1cc2c(Nc3ccc(F)c(Cl)c3)ncnc2cc1O[C@H]1CCOC1 [AFATINIB] | 137 | 145 | 121 | 140
CO[C@H]1C[C@@H]2CC[C@@H](C)[C@@](O)(O2)C(=O)C(=O)N2CCCC[C@H]2C(=O)O[C@H]([C@H](C)C[C@@H]2CC[C@@H](O)[C@H](OC)C2)CC(=O)[C@H](C)/C=C(\C)[C@@H](O)[C@@H](OC)C(=O)[C@H](C)C[C@H](C)/C=C/C=C/C=C/1C [SIROLIMUS] | 18.2 | 7.23 | 24.7 | 41.5
CC1(C)CCC(C)(C)c2cc(NC(=O)c3ccc(C(=O)O)cc3)ccc21 [TAMIBAROTENE] | 1.1 | 3.09 | 0 | 0
CN1CCCN(C(=O)c2cccc(-c3ccc(/C=C4/C(=O)Nc5ccc(Cl)cc54)o3)c2)CC1 [CX-6258] | 165 | 206 | 202 | 166
O=C(c1ccc(F)c(F)c1Nc1ccc(I)cc1F)N1CC(O)([C@@H]2CCCCN2)C1 [COBIMETINIB] |  | 145 | 104 | 51.1
CC/C(=C(\c1ccccc1)c1ccc(OCCN(C)C)cc1)c1ccccc1 [TAMOXIFEN] | 0 | 0 | 0 | 0
